# Assay results from patent publication US10538567B2, “Compounds as peptidic trigonal GLP1/glucagon/GIP receptor agonists” (priority 2016, dated 2020).
# Numbered stars: 1 amine (or outer) side, 2 acyl side, 3 side chain; on linkers, the order of the positions; unused ones are H or OH. Square brackets hold non-standard residues; d marks the D form. Side chains are listed from the residue outwards. Peptide text beside a SMILES is read from it. * marks the point of attachment. γGlu = O=C(O)[C@H](CCC(=O)[*:2])N[*:1]; Stearoyl = CCCCCCCCCCCCCCCCCC(=O)*; Palmitoyl = CCCCCCCCCCCCCCCC(=O)*; Aib = CC(C)(N)C(=O)O
# Test system: not listed separately
# Assay: Thioflavin T (ThT) assay for physical stability (fibrillation)
# Assay type: physicochemical
# Details: 3 mg/ml, 100 mM acetate pH 4.5 with m-cresol, 37° C. shaking
# Excerpt: Low physical stability of a peptide solution may lead to amyloid fibril formation, which is observed as well-ordered, thread-like macromolecular structures in the sample, which eventually may lead to gel formation. Thioflavin T (ThT) is widely used to visualize and quantify the presence of misfolded protein aggregates. [Biancalana et al. (2010) Biochimica et Biophysica Acta. 1804 (7): 1405-1412]. […] Enzymol. 309, 274-284]. The time course for fibril formation often follows the characteristic shape of a sigmoidal curve and can be separated into three regions: a lag phase, a fast growth phase, and a plateau phase.
# The typical fibril formation process starts with the lag phase in which the amount of partially folded peptide turned into fibrils is not significant enough to be detected. The lag-time corresponds to the time the critical mass of the nucleus is built. Afterwards, a drastic elongation phase follows and fibril concentration increases rapidly.
# Investigations were carried out to determine fibrillation tendencies under stress conditions by shaking at 37° C. within Fluoroskan Ascent FL.
# For the tests in Fluoroskan Ascent FL, 200 μL sample were placed into a 96 well mictrotiter plate PS, flat bottom, Greiner Fluotrac No. 655076. Plates were sealed with Scotch Tape (Quiagen). Samples were stressed by continuous cycles of 10 s shaking at 960 rpm and 50 s rest period at 37° C. The kinetic was monitored by measuring fluorescence intensity every 20 minutes.
# Peptides were diluted in a buffer system to a final concentration of 3 mg/ml. 20 μL of a 10.1 mM ThT solution in H2O were added to 2 mL of peptide solution to receive a final concentration of 100 μM ThT. For each sample eight replicates were tested.
# Tht buffer system A) 100 mM Acetate pH 4.5 including m-cresol (100 mM Natriumacetat trihydrat, pH adjustment using 2N CH3COOH, 2.7 mg/mL m-cresol) Tht buffer system B) 100 mM citrate buffer pH 6.0
# Lag time in hours in Thioflavin T (ThT) assay of peptide samples was determined in ThT buffer system A as described in Methods.
row,Lag time before increase [h],SMILES
1,>45,"CCCCCCCCCCCCCCCC(=O)N[C@@H](CCC(=O)NCCCC[C@H](NC(=O)[C@H](CC(C)C)NC(=O)[C@H](CCCCN)NC(=O)[C@H](CO)NC(=O)[C@H](CC(C)C)NC(=O)[C@H](CC(=O)O)NC(=O)[C@H](CO)NC(=O)[C@@H](NC(=O)[C@H](Cc1ccccc1)NC(=O)[C@@H](NC(=O)CNC(=O)[C@H](Cc1c[nH]cn1)NC(=O)C(C)(C)NC(=O)[C@@H](N)Cc1c[nH]cn1)[C@@H](C)O)[C@@H](C)O)C(=O)N[C@@H](CCC(=O)O)C(=O)N[C@@H](CCC(=O)O)C(=O)N[C@@H](CCC(N)=O)C(=O)N[C@@H](CCCNC(=N)N)C(=O)N[C@@H](CCC(N)=O)C(=O)NC(C)(C)C(=O)N[C@@H](CCC(=O)O)C(=O)N[C@@H](Cc1ccccc1)C(=O)N[C@H](C(=O)N[C@@H](CCC(=O)O)C(=O)N[C@@H](Cc1c[nH]c2ccccc12)C(=O)N[C@@H](CC(C)C)C(=O)N[C@@H](CCCCN)C(=O)N[C@@H](C)C(=O)N[C@H](C)C(=O)NCC(=O)N1CCC[C@H]1C(=O)N1CCC[C@H]1C(=O)N[C@@H](CO)C(=O)NC(C)(C)C(=O)N[C@@H](CCCCN)C(=O)N1CCC[C@H]1C(=O)N1CCC[C@H]1C(=O)N1CCC[C@H]1C(=O)N[C@@H](CCCCN)C(N)=O)[C@@H](C)CC)C(=O)O [SEQ ID NO: 16, H-Aib-H-G-T-F-T-S-D-L-S-K-L-K[gGlu-Palm]-E-E-Q-R-Q-Aib-E-F-I-E-W-L-K-A-dAla-G-P-P-S-Aib-K-P-P-P-K-NH2] (H-H[Aib]HGTFTSDLSKLK([γGlu-Palmitoyl])EEQRQ[Aib]EFIEWLKA[dA]GPPS[Aib]KPPPK-NH2)"
2,>45,"CCCCCCCCCCCCCCCCCC(=O)N[C@@H](CCC(=O)NCCCC[C@H](NC(=O)[C@H](CC(C)C)NC(=O)[C@H](CCCCN)NC(=O)[C@H](CO)NC(=O)[C@H](CC(C)C)NC(=O)[C@H](CC(=O)O)NC(=O)[C@H](CO)NC(=O)[C@@H](NC(=O)[C@H](Cc1ccccc1)NC(=O)[C@@H](NC(=O)CNC(=O)[C@H](Cc1c[nH]cn1)NC(=O)C(C)(C)NC(=O)[C@@H](N)Cc1c[nH]cn1)[C@@H](C)O)[C@@H](C)O)C(=O)N[C@@H](CCC(=O)O)C(=O)N[C@@H](CCC(=O)O)C(=O)N[C@@H](CCC(N)=O)C(=O)N[C@@H](CCCNC(=N)N)C(=O)N[C@@H](CCC(N)=O)C(=O)NC(C)(C)C(=O)N[C@@H](CCC(=O)O)C(=O)N[C@@H](Cc1ccccc1)C(=O)N[C@H](C(=O)N[C@@H](CCC(=O)O)C(=O)N[C@@H](Cc1c[nH]c2ccccc12)C(=O)N[C@@H](CC(C)C)C(=O)N[C@@H](CCCCN)C(=O)N[C@@H](C)C(=O)N[C@H](C)C(=O)NCC(=O)N1CCC[C@H]1C(=O)N1CCC[C@H]1C(=O)N[C@@H](CO)C(=O)NC(C)(C)C(=O)N[C@@H](CCCCN)C(=O)N1CCC[C@H]1C(=O)N1CCC[C@H]1C(=O)N1CCC[C@H]1C(=O)N[C@@H](CCCCN)C(N)=O)[C@@H](C)CC)C(=O)O [SEQ ID NO: 17, H-Aib-H-G-T-F-T-S-D-L-S-K-L-K[gGlu-Stea]-E-E-Q-R-Q-Aib-E-F-I-E-W-L-K-A-dAla-G-P-P-S-Aib-K-P-P-P-K-NH2] (H-H[Aib]HGTFTSDLSKLK([γGlu-Stearoyl])EEQRQ[Aib]EFIEWLKA[dA]GPPS[Aib]KPPPK-NH2)"

# Test system: female diabetic db/db mice
# Assay: Acute effects after s.c. treatment on blood glucose in non-fasting female diabetic db/db mice
# Assay type: in vivo
# Details: single 30 μg/kg s.c.
# Procedure: Female healthy, lean BKS.Cg-(lean)/OlaHsd and diabetes-prone, obese BKS.Cg-+Lepr^db/+Lepr^db/OlaHsd mice were ordered group housed from Envigo RMS Inc., shipped group housed and remained group housed in shoebox caging with wood chip bedding until day 15 of the predose phase. At the study start mice were approximately 12 weeks old.
# Mice were housed under vivarium conditions including a 12 h light/dark cycle (light phase 04:00 AM-4:00 PM), room temperatures between 23-26° C. and a relative humidity between 30-70%. All animals had free access to water and Purina Fomulab Diet 5008.
# On predose day 9 blood glucose and body mass (approximately between 08:00-10:00 AM) as well as HbA1c measurements were performed. On day 15 of the predose phase animals were assigned to treatment groups (n=8) and to new cages to match mean HbA1c and body masses between all db/db groups. An age-matched lean group was included in the study as a healthy, lean reference.
# Prior to day 1 of the dosing phase, the test article was diluted with Phosphate Buffered Saline (PBS, Gibco, without CaCl2 and MgCl2) to a concentration of 1 mg/mL and aliquots of this stock solution were stored at approximately ≤−60° C. On day 1 of the dosing phase the stock aliquot was thawed and the injected test article solution was prepared fresh by diluting it with PBS to achieve the desired concentration.
# On Day 1 of the dosing phase db/db mice were either treated once with a s.c. injection of PBS-vehicle or 30 μg/kg test article. The lean reference group was treated once with a s.c. injection of PBS-vehicle. The dosing was initiated and completed between 08:00 and 10:00 AM. The applied volume was 5 ml/kg and the dose was adjusted to the most recent body mass recording of each individual.
# Animals had unlimited access to water and feed during the experiment. On day 1 of the dosing phase approximately 5 μL of blood were collected via tail clips at minute −30 and 0 prior to any other inlife activities. At minute 0 mice received a s.c. dose of either PBS-vehicle or 30 μg/kg test article. Further blood samples were harvested at hour 0.25, 0.5, 1, 1.5, 2, 3, 4, 6, 8, and 24 post-dose. Glucose measurements were performed in whole blood using AlphaTRAK glucometers. If the glucose concentrations of two measurements differed by more than 20 mg/dL a third value was recorded. The Area Under the Curve (AUC) for blood glucose was calculated via the trapezoid method and for the duration of the 24 post-dose hours.
# In the Figures data are depicted as means±SEM. […] A One Way Analysis of Variance and multiple comparisons (Dunnett's Method) were performed comparing the group of diabetic, obese db/db vehicle mice (n=8) with each diabetic, obese db/db test article treated mice (n=8). […] Non-diabetic, lean-vehicle group data are depicted in the Figures serving as a reference dataset for the non-obese, non-diabetic state.
row,SMILES,mean blood glucose concentration 24 hours post-dose relative to baseline
1,"CCCCCCCCCCCCCCCC(=O)N[C@@H](CCC(=O)NCCCC[C@H](NC(=O)[C@H](CC(C)C)NC(=O)[C@H](CCCCN)NC(=O)[C@H](CO)NC(=O)[C@H](CC(C)C)NC(=O)[C@H](CC(=O)O)NC(=O)[C@H](CO)NC(=O)[C@@H](NC(=O)[C@H](Cc1ccccc1)NC(=O)[C@@H](NC(=O)CNC(=O)[C@H](Cc1c[nH]cn1)NC(=O)C(C)(C)NC(=O)[C@@H](N)Cc1c[nH]cn1)[C@@H](C)O)[C@@H](C)O)C(=O)N[C@@H](CCC(=O)O)C(=O)N[C@@H](CCC(=O)O)C(=O)N[C@@H](CCC(N)=O)C(=O)N[C@@H](CCCNC(=N)N)C(=O)N[C@@H](CCC(N)=O)C(=O)NC(C)(C)C(=O)N[C@@H](CCC(=O)O)C(=O)N[C@@H](Cc1ccccc1)C(=O)N[C@H](C(=O)N[C@@H](CCC(=O)O)C(=O)N[C@@H](Cc1c[nH]c2ccccc12)C(=O)N[C@@H](CC(C)C)C(=O)N[C@@H](CCCCN)C(=O)N[C@@H](C)C(=O)N[C@H](C)C(=O)NCC(=O)N1CCC[C@H]1C(=O)N1CCC[C@H]1C(=O)N[C@@H](CO)C(=O)NC(C)(C)C(=O)N[C@@H](CCCCN)C(=O)N1CCC[C@H]1C(=O)N1CCC[C@H]1C(=O)N1CCC[C@H]1C(=O)N[C@@H](CCCCN)C(N)=O)[C@@H](C)CC)C(=O)O [SEQ ID NO: 16, H-Aib-H-G-T-F-T-S-D-L-S-K-L-K[gGlu-Palm]-E-E-Q-R-Q-Aib-E-F-I-E-W-L-K-A-dAla-G-P-P-S-Aib-K-P-P-P-K-NH2] (H-H[Aib]HGTFTSDLSKLK([γGlu-Palmitoyl])EEQRQ[Aib]EFIEWLKA[dA]GPPS[Aib]KPPPK-NH2)",at or close to baseline
